# Test results published in US9198914B2, “Methods and compositions for modulating RAD51 and homologous recombination” (The University of Chicago, priority 2007, dated 2015).
# Entries after “also recorded” stand apart in the source; their conditions may differ.
# Assays:
# human RAD51 [1] = biological target: T1, human RAD51 (Homo sapiens, UniProt Q06609); test: Fluorescence polarization assay for RAD51 filament formation on fluorescein-labeled oligonucleotide; assay type: biochemical
# T1 sequence (Q06609 1-339): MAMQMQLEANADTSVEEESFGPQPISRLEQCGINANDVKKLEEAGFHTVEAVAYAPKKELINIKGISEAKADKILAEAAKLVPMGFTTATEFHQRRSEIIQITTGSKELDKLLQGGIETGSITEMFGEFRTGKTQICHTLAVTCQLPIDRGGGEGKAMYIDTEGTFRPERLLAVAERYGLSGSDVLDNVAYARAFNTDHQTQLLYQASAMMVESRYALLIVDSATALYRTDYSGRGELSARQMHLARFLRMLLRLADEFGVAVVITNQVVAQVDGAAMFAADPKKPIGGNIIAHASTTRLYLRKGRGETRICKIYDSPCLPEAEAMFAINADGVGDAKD
# Experimental: FIGS. 2A-2B. FIG. 2A, top: Schematic of protein filament formation monitored in vitro using a fluorescence polarization assay. FIG. 2A, bottom: Purified RAD51 protein (wild type or mutant F86E) were serially diluted. RecA (New England Biolabs) was used as a positive control. Proteins were added to a 5′terminal fluorescein conjugated oligonucleotide (45 bases of dT) at a 1 μM nucleotide concentration. The mixture was incubated at 37° C. for 30 minutes in 384-well plates containing a reaction buffer (30 mM Tris/acetate pH 7.5, 10 mM Mg^2+/acetate, 2 mM ATP, 0.1 mM DTT, 0.5 μM BSA). Fluorescence polarization was measured with a plate reader (filters: excitation=485 nm, emission=510 nm). FIG. 2B, top: Varying concentrations of 5′terminal fluorescein conjugated oligonucleotide were used to determine the threshold RAD51 concentration.
# The assay of Example 2 was used to serve in the screen of a small-molecule chemical library for compounds that stimulate RAD51 filament formation. […] Multiple positive (+RAD51) and negative […] controls were tested, and these readings were tested using the statistical method described by Zhang et al. (1999), which evaluates the suitability of an HT assay. The assay as described has a Z-factor of 0.82, validating it as an excellent assay for HT screening.
# The assay of Example 2 was used to serve in the screen of a small-molecule chemical library for compounds that inhibit RAD51 filament formation. […] FP readings were very reproducible with reaction volumes in the 10-100 μl range, and 100 μl was typically used. […] The assay was optimized such that the positive control FP reading was ˜50% of maximal reaction saturation; the RAD51 protein concentration was 0.3 uM and the fluorescein-labeled DNA is at 0.1 uM (nucleotide concentration). […] The average FP readings for positive control and negative control are 344 mP (SD=13.4) and 27 mP (SD=5.3), respectively. These readings were tested using the statistical method described by Zhang et al, which evaluates the suitability of an HT assay (Zhang et al., 1999). […]
# [2] = biological target: RecA protein (the bacterial ortholog of RAD51) (Escherichia coli, UniProt P0A7G6); conditions: RecA in place of RAD51
# Chain of RecA protein (the bacterial ortholog of RAD51) (P0A7G6 2-353): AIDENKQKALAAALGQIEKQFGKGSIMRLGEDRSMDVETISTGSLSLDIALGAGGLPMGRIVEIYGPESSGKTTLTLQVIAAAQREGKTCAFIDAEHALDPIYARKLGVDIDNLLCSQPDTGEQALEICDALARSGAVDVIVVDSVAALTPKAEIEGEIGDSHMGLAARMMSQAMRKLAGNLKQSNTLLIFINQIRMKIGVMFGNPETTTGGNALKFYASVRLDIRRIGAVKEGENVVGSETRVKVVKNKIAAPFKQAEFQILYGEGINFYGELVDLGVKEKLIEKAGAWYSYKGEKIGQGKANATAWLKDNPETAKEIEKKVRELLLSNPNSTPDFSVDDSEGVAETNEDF
# Experimental: RAD51 filament formation can also be studied using oligonucleotides that are end-labeled with a fluorescent tag. Binding of proteins to this substrate DNA can be detected as an increase in anisotropy (or polarization) of the fluorescent tag. […] In this example, this method was modified so that very small sample volumes (30 μl) can be monitored in a high-throughput scale, using 384-well plates and a fluorescent plate reader. […] By varying the amount of substrate DNA, a threshold of approximately 0.1 μM RAD51 protein is required for in vitro filament formation in this system.
# A naïve 10,000 compound library of small molecules (Chembridge DIVERSet collection) was screened. A ‘mixed compound’ screening strategy was used, wherein each reaction tested a mixture of 8 compounds.
# yeast DMC1 = biological target: T2, yeast DMC1 (Saccharomyces cerevisiae, UniProt P25453); test: Strand invasion (D-loop) assay with DMC1 in place of RAD51; assay type: biochemical
# T2 sequence (P25453 1-334): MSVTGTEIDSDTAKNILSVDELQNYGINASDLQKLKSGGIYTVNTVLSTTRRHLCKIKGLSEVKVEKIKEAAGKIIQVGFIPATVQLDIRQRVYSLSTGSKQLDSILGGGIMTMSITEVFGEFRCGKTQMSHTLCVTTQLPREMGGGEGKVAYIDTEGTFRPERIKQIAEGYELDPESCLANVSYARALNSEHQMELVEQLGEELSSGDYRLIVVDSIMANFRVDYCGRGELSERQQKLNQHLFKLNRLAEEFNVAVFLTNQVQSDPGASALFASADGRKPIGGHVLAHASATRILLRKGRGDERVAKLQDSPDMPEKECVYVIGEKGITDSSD
# Experimental: (§1) Conditions with scRAD51 additionally contained 110 nM scRAD54.
# human RAD51 [3] = biological target: T1, human RAD51; test: Strand invasion (D-loop) assay; assay type: biochemical; conditions: 0.8 μM RAD51; buffer that does not support joint molecule formation (1 mM ATP, 1 mM MgOAc)
# Experimental: FIGS. 6A-6B. Schematic of the strand invasion (D-loop) assay.
# as §1
# bacterial RecA = bacterial RecA (Escherichia coli, UniProt P0A7G6)
# Chain of bacterial RecA (P0A7G6 whole entry): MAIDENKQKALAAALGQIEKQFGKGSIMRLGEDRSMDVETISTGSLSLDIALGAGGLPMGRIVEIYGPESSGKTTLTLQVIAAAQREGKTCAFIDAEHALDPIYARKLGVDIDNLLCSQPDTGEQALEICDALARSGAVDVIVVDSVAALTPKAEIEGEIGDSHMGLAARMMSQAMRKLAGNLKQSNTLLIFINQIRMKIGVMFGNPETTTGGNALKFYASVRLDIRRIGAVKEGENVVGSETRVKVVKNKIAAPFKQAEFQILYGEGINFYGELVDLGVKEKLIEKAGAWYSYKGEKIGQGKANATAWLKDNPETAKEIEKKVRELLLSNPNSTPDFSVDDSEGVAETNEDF
# Experimental: Briefly, 15 μl reaction volumes included a DNA strand exchange protein (0.8 μM) that was pre-incubated for 5 min at 37° C. with 1 μM (nucleotide concentration) ^32P-labeled oligonucleotide in a reaction buffer containing 20 mM Hepes (pH 7.5), 1 mM DTT, 2 mM nucleotide cofactor, and 1 mM MgCl2, and various concentrations of RS-1. For experimental buffer conditions that included calcium, 1 mM CaCl2 was present in addition to (in the case of hRAD51) or in the place of (in the case of RecA and scRAD51) the 1 mM MgCl2. Conditions with scRAD51 additionally contained 110 nM scRAD54. Following this initial binding reaction, 10 μl of 19.75 μM (base pair concentration) supercoiled homolog-containing target plasmid DNA (pRS306) was next added along with sufficient magnesium acetate to give a final concentration of 10 mM. DNA substrates were allowed form a homology dependent association (or ‘D-loop’), and reactions were stopped with SDS and proteinase K. The resulting DNA was separated on 1.3% agarose gels, transferred onto nitrocellulose membranes, analyzed by phosphorimaging, and quantified with ImageJ 1.37v software (NIH).
# These experiments were repeated using other recombinase proteins (bacterial RecA and yeast DMC1) in the place of human RAD51.
# [4] = system: chicken lymphocyte DT40 cells; test: Clonogenic survival study in the presence of radiation; assay type: cell-based; conditions: compound added about 30 minutes after irradiation, 24 hours
# Experimental: Single chicken lymphocyte DT40 cells were irradiated. Thirty minutes later, they were incubated with compound 45488 (also called compound 5253121) for 24 hours. Single cells were then plated (100, 1000, or 10000) in 6-well plates in media. Because DT40 cells are not adherent to plastic surfaces, the media included methylcellulose to provide viscosity. After 7-10 days, the resulting colonies are counted, and survival is reported as a colony-forming ability relative to un-irradiated cells.
compound,measurement,setting,value
O=C(Nc1ccc(Br)cc1)c1ccc(Br)c(S(=O)(=O)NCc2ccccc2)c1 [compound 45488],stability of RAD51 filaments in high salt,human RAD51 [1]; buffers containing high salt concentrations,protects these filaments from buffers containing high salt concentrations; also recorded: stabilizes RAD51 filaments in the presence of high salt concentrations
same,effect on RAD51 filament formation,human RAD51 [1]; compound at 20 μM,enhances filament formation
same,effect on RAD51 filament formation,human RAD51 [1]; further study,enhances RAD51 filament formation
same,stimulation of RecA filament formation,[2],no stimulation of filament formation
same,effect on strand invasion by DMC1,yeast DMC1,some inhibition
same,joint molecule formation / DNA strand invasion activity of RAD51,human RAD51 [3],capable of stimulating DNA strand invasion activity of RAD51; also recorded: concentration dependent increase in joint molecule formation
same,effect on strand invasion by RecA,bacterial RecA,no effect
same,protection of cells from radiation (colony-forming ability),[4],protects the cells from radiation damage
